Test results: US11802120B2, “Fused cyclic urea derivatives as CRHR2 antagonist” (RaQualia Pharma Inc., priority 2018, dated 2023)
pIC50: −log10 of the molar value.

These compounds were tested against T1, human CRHR2-alpha (Homo sapiens, UniProt Q13324) (assay: cAMP functional assay for human CRHR2 (LANCE Ultra cAMP, TR-FRET)). Details: CHO-K1 cells expressing human CRHR2-alpha, agonist human urocortin2 at EC80, cAMP; read-out: IC50 against CRHR2.
T1 sequence (Q13324 1-411): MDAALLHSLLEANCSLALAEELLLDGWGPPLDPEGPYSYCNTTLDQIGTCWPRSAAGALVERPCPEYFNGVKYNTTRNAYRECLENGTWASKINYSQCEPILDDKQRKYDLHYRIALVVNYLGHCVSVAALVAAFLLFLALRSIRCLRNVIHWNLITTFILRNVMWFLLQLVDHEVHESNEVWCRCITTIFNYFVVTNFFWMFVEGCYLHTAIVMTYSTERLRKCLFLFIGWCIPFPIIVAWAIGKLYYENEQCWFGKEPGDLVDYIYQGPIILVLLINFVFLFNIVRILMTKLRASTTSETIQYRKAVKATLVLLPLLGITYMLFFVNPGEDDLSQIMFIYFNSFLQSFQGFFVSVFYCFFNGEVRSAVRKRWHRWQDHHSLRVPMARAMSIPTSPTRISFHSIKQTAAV
Format: cell-based
In short: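 CHO-K1 cells stably expressing each receptor, serum-starved and cryopreserved, were preincubated with compound 30 min at 25° C in HBSS buffer with 0.5 mM IBMX, pH 7.4, then stimulated 30 min with EC80 agonist (urocortin2 for CRHR2, CRF for CRHR1). cAMP read by TR-FRET; IC50 from percent-inhibition curves.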

pIC50, > 6.52:
CN1CCN(c2ccc(-n3c(=O)n(C[C@H]4CC[C@H](NC(=O)c5cc(Cl)cnc5C(F)F)CC4)c4ccccc43)nc2)C1=O [Example 735, 5-chloro-2-(difluoromethyl)-N-((1r,4r)-4-((3-(5-(3-methyl-2-oxoimidazolidin-1-yl)pyridin-2-yl)-2-oxo-2,3-dihydro-1H-benzo[d]imidazol-1-yl)methyl)cyclohexyl) nicotinamide]
NC(=O)Nc1ccc(-n2c(=O)n(C[C@H]3CC[C@H](NC(=O)c4cc(Cl)cnc4C(F)F)CC3)c3ccccc32)cn1 [Example 658, 5-chloro-2-(difluoromethyl)-N-((1r,4r)-4-((2-oxo-3-(6-ureidopyridin-3-yl)-2,3-dihydro-1H-benzo[d]imidazol-1-yl)methyl)cyclohexyl)nicotinamide]
CNC(=O)c1ccc(-n2c(=O)n(C[C@H]3CC[C@H](NC(=O)c4cc(Cl)cnc4C(F)(F)F)CC3)c3cc(F)ccc32)cn1 [Example 290, 5-(3-(((1r,4r)-4-(5-chloro-2-(trifluoromethyl)nico-tinamido)cyclohexyl)methyl)-5-fluoro-2-oxo-2,3-dihydro-1H-benzo[d]imidazol-1-yl)-N-methyl-picolinamide]
O=C(N[C@H]1CC[C@H](Cn2c(=O)n(-c3ccc(N4CCCC4=O)nc3)c3ccccc32)CC1)c1cc(Cl)cnc1C(F)F [Example 498, 5-chloro-2-(difluoromethyl)-N-((1r,4r)-4-((2-oxo-3-(6-(2-oxopyrrolidin-1-yl)pyridin-3-yl)-2,3-dihydro-1H-benzo[d]imidazol-1-yl)methyl)cyclohexyl)nicotinamide]
COCCNc1ccc(-n2c(=O)n(C[C@H]3CC[C@H](NC(=O)c4cc(Cl)cnc4C(F)F)CC3)c3ccccc32)cn1 [Example 572, 5-chloro-2-(difluoromethyl)-N-((1r,4r)-4-((3-(6-((2-methoxyethyl)amino)pyridin-3-yl)-2-oxo-2,3-dihydro-1H-benzo[d]imidazol-1-yl)methyl)cyclohexyl)nicotinamide]
COc1ccc(F)c(-n2c(=O)n(C[C@H]3CC[C@H](NC(=O)c4cc(Cl)cnc4C(F)F)CC3)c3cccnc32)c1 [Example 725, 5-chloro-2-(difluoromethyl)-N-((1r,4r)-4-((3-(2-fluoro-5-methoxyphenyl)-2-oxo-2,3-dihydro-1H-imidazo[4,5-b]pyridin-1-yl)methyl)cyclo-hexyl)nicotinamide]
CNC(=O)c1ccc(-n2c(=O)n(C[C@H]3CC[C@H](NC(=O)c4cc(Cl)cnc4C(F)(F)F)CC3)c3ccccc32)cn1 [Example 240, 5-(3-(((1r,4r)-4-(5-chloro-2-(trifluoromethyl)nicotina-mido)cyclohexyl)methyl)-2-oxo-2,3-dihydro-1H-benzo [d]imidazol-1-yl)-N-methylpicolinamide]
Cc1ncc(Cl)cc1C(=O)N[C@H]1CC[C@H](Cn2c(=O)n(-c3cnc4c(c3)OCCN4)c3ccccc32)CC1 [Example 159, 5-chloro-N-((1r,4r)-4-((3-(3,4-dihydro-2H-pyrido[3,2-b][1,4]oxazin-7-yl)-2-oxo-2,3-dihydro-1H-benzo[d]imidazol-1-yl)methyl)cyclohexyl)-2-methylnicotinamide]
O=C(N[C@H]1CC[C@H](Cn2c(=O)n(-c3ccc(OC4COC4)nc3)c3ccccc32)CC1)c1cc(Cl)cnc1C(F)F [Example 478, 5-chloro-2-(difluoromethyl)-N-((1r,4r)-4-((3-(6-(oxetan-3-yloxy)pyridin-3-yl)-2-oxo-2,3-dihydro-1H-benzo[d]imidazol-1-yl)methyl)cyclohexyl)nicotinamide]
CNC(=O)COc1ccc(-n2c(=O)n(C[C@H]3CC[C@H](NC(=O)c4cc(Cl)cnc4C(F)F)CC3)c3ccccc32)cn1 [Example 500, 5-chloro-2-(difluoromethyl)-N-((1r,4r)-4-((3-(6-(2-(methylamino)-2-oxoethoxy)pyridin-3-yl)-2-oxo-2,3-dihydro-1H-benzo[d]imidazol-1-yl)methyl)cyclohexyl)nicotinamide]
Cc1ncc(Cl)cc1C(=O)N[C@H]1CC[C@H](Cn2c(=O)n(-c3cccc(-c4cnco4)c3)c3ccccc32)CC1 [Example 488, 5-chloro-2-methyl-N-((1r,4r)-4-((3-(3-(oxazol-5-yl)phenyl)-2-oxo-2,3-dihydro-1H-benzo[d]imidazol-1-yl)methyl)cyclo-hexyl)nicotinamide]
CC(C)(O)COc1ccc(-n2c(=O)n(C[C@H]3CC[C@H](NC(=O)c4cc(Cl)cnc4C(F)F)CC3)c3ccccc32)cn1 [Example 429, 5-chloro-2-(difluoromethyl)-N-((1r,4r)-4-((3-(6-(2-hydroxy-2-methylpropoxy)pyridin-3-yl)-2-oxo-2,3-dihydro-1H-benzo[d]imidazol-1-yl)methyl)cyclohexyl) nicotinamide]
CCOc1ccc(-n2c(=O)n(C[C@H]3CC[C@H](NC(=O)c4cc(Cl)cnc4C)CC3)c3cccnc32)cc1 [Example 402, 5-chloro-N-((1r,4r)-4-((3-(4-ethoxyphenyl)-2-oxo-2,3-dihydro-1H-imidazo[4,5-b]pyridin-1-yl)methyl)cyclo-hexyl)-2-methylnicotinamide]
Cc1ncc(Cl)cc1C(=O)N[C@H]1CC[C@H](Cn2c(=O)n(-c3cnc4c(cnn4CCO)c3)c3ccccc32)CC1 [Example 253, 5-chloro-N-((1r,4r)-4-((3-(1-(2-hydroxyethyl)-1H-pyrazolo[3,4-b]pyridin-5-yl)-2-oxo-2,3-dihydro-1H-benzo[d]imidazol-1-yl)methyl)cyclohexyl)-2-methylnicotinamide]
CNC(=O)c1ccc(-n2c(=O)n(C[C@H]3CC[C@H](NC(=O)c4cc(Cl)cnc4C(F)F)CC3)c3ccc(F)cc32)cn1 [Example 562, 5-(3-(((1r,4r)-4-(5-chloro-2-(difluororomethyl)nicotina-mido)cyclohexyl)methyl)-6-fluoro-2-oxo-2,3-dihydro-1H-benzo[d]imidazol-1-yl)-N-methylpicolinamide]
Cc1ncc(Cl)cc1C(=O)N[C@H]1CC[C@H](Cn2c(=O)n(-c3cnc4[nH]ccc4c3)c3ccccc32)CC1 [Example 408, 5-chloro-2-methyl-N-((1r,4r)-4-((2-oxo-3-(1H-pyrrolo[2,3-b]pyridin-5-yl)-2,3-dihydro-1H-benzo[d]imidazol-1-yl)methyl)cyclohexyl)nicotinamide]
CCNC(=O)c1ccc(-n2c(=O)n(C[C@H]3CC[C@H](NC(=O)c4cc(Cl)cnc4C)CC3)c3ccccc32)cn1 [Example 182, 5-(3-(((1r,4r)-4-(5-chloro-2-methylnicotinamido)cyclo-hexyl)methyl)-2-oxo-2,3-dihydro-1H-benzo[d]imidazol-1-yl)-N-ethylpicolinamide]
N#Cc1ccccc1-n1c(=O)n(C[C@H]2CC[C@H](NC(=O)c3cc(Cl)cnc3C(F)F)CC2)c2ccccc21 [Example 499, 5-chloro-N-((1r,4r)-4-((3-(2-cyanophenyl)-2-oxo-2,3-dihydro-1H-benzo[d]imidazol-1-yl)methyl)cyclo-hexyl)-2-(difluoromethyl) nicotinamide]
